In patent publication US11771679B2, “Composition containing hesperetin and synergistic hypoglycemic application thereof” (ZHENGZHOU FRUIT RESEARCH INSTITUTE, CHINESE ACADEMY OF …, priority 2021, dated 2023):

Target: T1, α-glucosidase (Saccharomyces cerevisiae, UniProt P53341)
T1 construct: purchased Sigma
Assay: α-glucosidase inhibition test (pNPG substrate, OD 405 nm); CI calculated with CompuSyn (Chou-Talalay)
Type: biochemical
Conditions: for Inhibition rate: single compound
From the text: [drawing 3] • α-glucosidase (coming from Saccharomyces cerevisiae, Sigma); • 4-nitrophenyl-α-D-glucopyranoside (pNPG, TOKYO Chemica Industry Co., LTD); • acarbose (Acarbose, TOKYO Chemica Industry Co., LTD); • hesperetin, galangin, and formononetin (BEIJING Solarbio Technology Co., LTD); • Millipore Simplicity water purification system (Millipore, France); • sodium phosphate salt buffer solution (pH 6.8, 0.1 mol L-1); and • microplate reader TECAN infinite M200 PRO (Teacan Group Ltd., Swizerland).
an α-glucosidase solution with a concentration being 0.25 U/mL and a substrate p-nitrophenyl-α-D-glucopyranoside (pNPG) solution with a concentration being 5 mmol/mL were prepared by using a PBS buffer solution (0.1 mol/L pH 6.8).
100 μL of sample solution was added to each hole, then 40 μL of α-glucosidase (0.25 U/mL) was added, reacted for 15 min at 37° C., and then 60 μL of substrate p-nitrophenyl-α-D-glucopyranoside (5 mmol/mL) was added; and after placed at 37° C. to react for 15 min, a microplate reader measured at a wave length of 405 nm.
CI values are calculated according to CompuSyn software to evaluate synergistic effect among drugs.

T1 sequence (P53341 whole entry): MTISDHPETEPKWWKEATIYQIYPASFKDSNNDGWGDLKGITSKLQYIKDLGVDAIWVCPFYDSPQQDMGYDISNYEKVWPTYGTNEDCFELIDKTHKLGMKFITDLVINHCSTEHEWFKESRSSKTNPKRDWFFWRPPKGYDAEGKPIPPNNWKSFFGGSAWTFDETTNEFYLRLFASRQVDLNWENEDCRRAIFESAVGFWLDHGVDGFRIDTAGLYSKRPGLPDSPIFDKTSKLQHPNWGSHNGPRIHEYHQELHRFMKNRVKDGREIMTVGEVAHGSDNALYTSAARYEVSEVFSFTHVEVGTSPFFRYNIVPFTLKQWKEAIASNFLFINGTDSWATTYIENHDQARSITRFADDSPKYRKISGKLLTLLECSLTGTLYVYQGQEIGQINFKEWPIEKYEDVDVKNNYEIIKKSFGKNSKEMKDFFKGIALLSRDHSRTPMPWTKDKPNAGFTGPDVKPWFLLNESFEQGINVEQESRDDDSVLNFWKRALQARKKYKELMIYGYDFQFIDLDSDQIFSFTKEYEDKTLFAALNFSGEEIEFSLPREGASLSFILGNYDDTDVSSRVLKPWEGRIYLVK

Work on O=c1cc(-c2ccc(O)cc2)oc2cc(O)cc(O)c12 [Apigenin] yielded an inhibition at 6 µg/mL (read-out: Inhibition rate) of 56.1 ± 4.4%.
O=c1cc(-c2ccccc2)oc2cc(O)c(O)c(O)c12 [Baicalein] showed an inhibition at 10 µg/mL (read-out: Inhibition rate) of 38.8 ± 3.3%.
In the case of Vitexin, the Inhibition rate (10 μg/mL) is reported as 29.2 ± 1.4%.
Work on COc1ccc(C2CC(=O)c3c(O)cc(O)cc3O2)cc1O (stereo not shown) [Hesperetin] yielded an inhibition at 30 µg/mL (read-out: Inhibition rate) of 45.2 ± 3.2% and an inhibition at 50 µg/mL (read-out: Inhibition rate) of 63.4 ± 4.2%.
Oc1cc(O)c2cc(O)c(-c3cc(O)c(O)c(O)c3)[o+]c2c1 [Delphinidin] was tested, and the inhibition at 1 µg/mL (read-out: Inhibition rate) was 50.2 ± 4.3%.
Compound O=c1c(-c2ccc(O)cc2)coc2cc(O)ccc12 [Daidzein] has an inhibition at 8 µg/mL (read-out: Inhibition rate) of 44.5 ± 2.5%.
O=c1c(O)c(-c2ccc(O)cc2O)oc2cc(O)cc(O)c12 [Morin] showed an inhibition at 1 µg/mL (read-out: Inhibition rate) of 41.2 ± 2.7%.
Chrysin was tested, and the Inhibition rate (100 μg/mL) was 51.2 ± 5.5%.
In the case of COc1c(-c2ccc(O)c(O)c2)oc2cc(O[C@@H]3OC(C)[C@@H](O)C(O)C3O)cc(O)c2c1=O (stereo partly shown) [Vincetoxicoside], the inhibition at 12 µg/mL (read-out: Inhibition rate) is reported as 48.7 ± 2.1%.
C[C@H]1O[C@H](O[C@H]2[C@H](O)[C@@H](O)[C@@H](O[C@H]3[C@H](O)[C@@H](O)C(O)O[C@@H]3CO)O[C@@H]2CO)[C@H](O)[C@@H](O)[C@@H]1N[C@H]1C=C(CO)[C@@H](O)[C@H](O)[C@H]1O (stereo partly shown) [acarbose] was tested, and the inhibition at 350 µg/mL (read-out: Inhibition rate) was 46.2 ± 3.5%.
O=C(CCc1ccc(O)cc1)c1c(O)cc(O)cc1O [Phloretin] showed an inhibition at 8 µg/mL (read-out: Inhibition rate) of 46.3 ± 2.7%.
COc1ccc(-c2oc3cc(O)cc(O)c3c(=O)c2O)cc1 [Kaempferide] showed an inhibition at 5 µg/mL (read-out: Inhibition rate) of 30.8 ± 1.3%.
Work on O=c1c(O)c(-c2ccccc2)oc2cc(O)cc(O)c12 [Galangin] yielded an inhibition at 100 µg/mL (read-out: Inhibition rate) of 56.3 ± 4.5% and an inhibition at 150 µg/mL (read-out: Inhibition rate) of 84.4 ± 7.5%.
In the case of O=C1c2c(O)cc(O)cc2OC(c2ccc(O)cc2O)C1O (stereo not shown) [Dihydromorin], the inhibition at 15 µg/mL (read-out: Inhibition rate) is reported as 25.7 ± 4.7%.
In the case of COc1ccc(-c2coc3cc(O)cc(O)c3c2=O)cc1 [Biochanin A], the inhibition at 0.7 µg/mL (read-out: Inhibition rate) is reported as 38.5 ± 2.1%.
Work on COc1c(-c2ccc(O)c(O)c2)oc2cc(O)cc(O)c2c1=O [3-O-methyl quercetin] yielded an inhibition at 2 µg/mL (read-out: Inhibition rate) of 46.2 ± 1.2%.
COc1ccc(-c2coc3cc(O)ccc3c2=O)cc1 [Formononetin] showed an inhibition at 20 µg/mL (read-out: Inhibition rate) of 60.1 ± 5.3% and an inhibition at 30 µg/mL (read-out: Inhibition rate) of 65.2 ± 4.3%.
With O=C1C[C@@H](c2ccc(O)cc2)Oc2cc(O)cc(O)c21 [Naringenin] the inhibition at 25 µg/mL (read-out: Inhibition rate) was 50.5 ± 4.3%.
Work on O=c1cc(-c2ccc(O)c(O)c2)oc2cc(O)cc(O)c12 [Luteolin] yielded an inhibition at 1 µg/mL (read-out: Inhibition rate) of 45.5 ± 2.7%.
For COc1ccc(-c2coc3cc(O)ccc3c2=O)cc1O [Calycosin], the inhibition at 6 µg/mL (read-out: Inhibition rate) was 56.6 ± 4.3%.
In the case of O=c1c(O)c(-c2cc(O)c(O)c(O)c2)oc2cc(O)cc(O)c12 [Myricetin], the inhibition at 1 µg/mL (read-out: Inhibition rate) is reported as 41.2 ± 1.5%.
With O=c1c(O)c(-c2ccc(O)c(O)c2)oc2cc(O)ccc12 [Fisetin] the inhibition at 6 µg/mL (read-out: Inhibition rate) was 46.5 ± 2.3%.
In the case of O=C(/C=C/c1ccc(O)cc1)c1ccc(O)cc1O [Isoliquiritigenin], the inhibition at 4 µg/mL (read-out: Inhibition rate) is reported as 35.2 ± 2.5%.
Oc1cc(O)c2cc(O)c(-c3ccc(O)c(O)c3)[o+]c2c1 [Cyanidin] gave an inhibition at 0.7 µg/mL (read-out: Inhibition rate) of 47.5 ± 1.4%.
Work on COc1cc(O)c2c(=O)cc(-c3ccc(O)cc3)oc2c1 [Genkwanin] yielded an inhibition at 35 µg/mL (read-out: Inhibition rate) of 70.1 ± 5.5%.
